Measurements published in patent publication US5512671A, “Ether lipid-nucleoside covalent conjugates” (Wake Forest University, priority 1995, dated 1996).

Key:
[1] = tested on: CEM-SS cells; test: CEM-SS cell growth, 3H-Tdr pulse label DNA synthesis (Example 23); assay type: cell-based; conditions: Homo sapiens, 48 hours at 37° C., then 3H-Tdr 8 hours
[2] = in vitro; conditions: human, cem-ss cells
[3] = tested on: HIV-1; test: Infectious HIV-1 production (PFU) in persistently infected monocyte/macrophage (U1) cells; assay type: cell-based
Description: (§1) See C. Perno et al., J. Exp. Med. 168, 1111 (1984).

[4] = tested on: HIV-1; test: HIV-1 plaque formation in CEM-SS cells (Example 23); assay type: cell-based; conditions: for IC50: read-out: IC50 HIV-1 Plaque Formation; for D.S. (Differential selectivity): average IC50 for CEMSS cell growth / average IC50 for HIV1 plaque formation
Description: Anti-HIV1 Activity of Lipid-Nucleoside Conjugates. CEM-SS cells were seeded (50,000 cells/ml RPMI-1640 growth medium) as a monolayer in 96-well dishes, innoculated with 50 to 100 plaque forming units of HIV-1 and overlaid with serial dilutions of lipid-nucleoside conjugate in RPHI-1640 growth medium. Plaques were counted after five days incubation at 37° C. to determine the 50% inhibitory concentration.

[5] = tested on: HIV-1; test: HIV-1 induced p24 core antigen synthesis in persistently infected monocyte/macrophage (U1) cells; assay type: cell-based; conditions: control 94 = 100
Description: as §1

[6] = tested on: HIV-1; test: Plaque assay: inhibition of HIV-1 syncytial plaque formation in CEM-SS cells (Example 15); assay type: cell-based, human immunodeficiency virus type 1 (HIV-1); conditions: for IC50: Human immunodeficiency virus 1, CEM-SS, 120 h, read-out: Inhibitory Concentration50 for HIV-1 Plaque Formation; for Differential Selectivity: ratio IC50 for cytotoxicity / IC50 for HIV1 plaque formation
Description: Anti-HIV1 Activity of Lipid-Nucleoside Conjugates. […] In brief, CEM-SS cell monolayers were infected with HIV-1. […] Plaques were counted at five days after infection. In this assay HIV-1 syncytial plaques are seen as large, multicellular foci (10 to 25 nuclei/syncytium) that appear either brown and granular or clear. Silnce the number of HIV-1 syncytial plaques correlates with reverse transcriptase (RT) and p24 core antigen activity in the HIV-1 infected cell overlay fluids, the syncytial plaque assay can be used to quantify the amount of infectious virus. […] The activity of p24 core antigen induced by HIV-1 infection of CEM-SS cells was measured spectrophotometrically using the commercial Coulter EIA.

[7] = tested on: HIV-1; test: HIV-1 induced RT in persistently infected monocyte/macrophage (U1) cells; assay type: cell-based; conditions: control 79,328 DPM = 100
Description: as §1

[8] = tested on: CEM-SS cells; test: Cell cytotoxicity (Example 15, Table 1); conditions: conjugate IC50 53.8 μM vs AZT IC50 5.6 μM
[9] = Human immunodeficiency virus 1, 120 h, CEM-SS cells, five days incubation at 37° C.

| Compound | CC50 [2] [µM] | IC50 [6] [µM] | Differential Selectivity [6] | also measured |
| --- | --- | --- | --- | --- |
| CCCCCCCCCCCCCCCCOCC(COP(=O)(O)OP(=O)(O)OCC1OC(n2cc(C)c(=O)[nH]c2=O)CC1N=[N+]=[N-])OCC [A, 3'-Azido-3'-deoxythymidine-5'-diphosphate-D,L-3-hexadecyloxy-2-ethoxypropane] | – | – | – | IC50 [1]: > 100 µM |
| Cc1cn([C@H]2C[C@H](N=[N+]=[N-])[C@@H](CO)O2)c(=O)[nH]c1=O [AZT, 3'-azido-3'-deoxythymidine] | 5.6 | 0.004 ± 0.001 | – | inhibition of infectious HIV-1 production [3]: 13%; PFU, Percent of Control ([3]; control 750 PFU = 100): 87% of Control; IC50 ([4]; Human immunodeficiency virus 1, CEM-SS, 120 h): 0.004 µM; p24 core Ag, Percent of Control [5]: 101% of Control; RT DPM, Percent of Control [7]: 90% of Control |
| CCCCCCCCCCCCCCCCCC(=O)NCC(COP(=O)(O)OC[C@H]1O[C@@H](n2cc(C)c(=O)[nH]c2=O)C[C@@H]1N=[N+]=[N-])OCC (some centres unmarked) [A] | 53.8 ± 7.8 | 0.03 ± 0.02 | – | – |
| CCCCCCCCCCCCCCCCCC(=O)NCC(COP(=O)([O-])OC(CC(=O)OC[C@H]1O[C@@H](n2cc(C)c(=O)[nH]c2=O)C[C@@H]1N=[N+]=[N-])C[N+](C)(C)C)OCC (stereo partly drawn) [BB, 3'-Azido-3-deoxythymidine-5'-butyrate-γ-N,N,N-trimethyl-ammonium-β-(1-phospho-2-ethoxy-3octadecanamidopropane)] | – | – | – | IC50 [4, 9]: 0.04 µM; D.S. (Differential selectivity) [4]: 342 |
| CCCCCCCCCCCCCCCCCC(=O)NCC(COP(=O)(O)OC[C@H]1O[C@@H](n2cc(C)c(=O)[nH]c2=O)C[C@@H]1N=[N+]=[N-])OCC (stereo partly drawn) [Compound A, 3,-azido-3'-deoxythymidine-5'-monophosphate-D,L-3-octadecanamido-2-ethoxypropane] | – | – | – | decrease in cell cytotoxicity compared to AZT [8]: about ten-fold |
| CCCCCCCCCCCCCCCCOCC(COP(=O)([O-])OC(CC(=O)OC[C@H]1O[C@@H](n2cc(C)c(=O)[nH]c2=O)C[C@@H]1N=[N+]=[N-])C[N+](C)(C)C)OCC (stereo partly drawn) [Compound AA, 3'-Azido-3'-deoxythymidine-5'-butyrate-γ-N,N,N-trimethyl-ammonium-β-(1-phospho-2-ethoxy-3-hexadecyloxypropane)] | – | – | – | IC50 [4, 9]: 0.004 µM; D.S. (Differential selectivity) [4]: 3375 |
| CCCCCCCCCCCCCCCCOCC(COP(=O)(O)OC[C@H]1O[C@@H](n2cc(C)c(=O)[nH]c2=O)C[C@@H]1N=[N+]=[N-])OCC (stereo partly drawn) [Compound B, 3'-azido-3'deoxythymidine-5'-monophosphate-D,L-3-hexadecyloxy-2-ethoxypropane] | 35 ± 2.1 | 0.03 ± 0.02 | 1167 | – |
| CCCCCCCCCCCCCCCCSCC(COP(=O)(O)OC[C@H]1O[C@@H](n2cc(C)c(=O)[nH]c2=O)C[C@@H]1N=[N+]=[N-])OC (stereo partly drawn) [Compound C, 3'azido-3'-deoxythymidine-5'-monophosphate-D,L-3-hexadecylthio-2-methoxypropane] | 29.2 ± 5.7 | 0.02 ± 0.01 | 1465 | – |
| CCCCCCCCCCCCCCCCCC(=O)NCC(COP(=O)(O)OC[C@@H]1CC[C@H](n2cnc3c(=O)[nH]cnc32)O1)OCC (stereo partly drawn) [Compound D, 2,3,-dideoxyinosine-5'-monophosphate-D,L-3-octadecanamido-2-ethoxypropane] | > 100 | 1.56 ± 0.8 | > 64 | – |
| CCCCCCCCCCCCCCCCOCC(CP(=O)(O)OC[C@H]1O[C@@H](n2cc(C)c(=O)[nH]c2=O)C[C@@H]1N=[N+]=[N-])OC (stereo partly drawn) [Compound E, 3'-Azido-3'-deoxythymidine-5'-phosphono-D,L-3-hexadecyloxy-2-methoxypropane] | 25.2 ± 1.1 | 0.02 ± 0.01 | 1260 | – |
| CCCCCCCCCCCCCCCCCC(=O)NCC(COP(=O)(O)OP(=O)(O)OC[C@H]1O[C@@H](n2cc(C)c(=O)[nH]c2=O)C[C@@H]1N=[N+]=[N-])OCC (stereo partly drawn) [Compound H, 3'-Azido-3-deoxythymidine-5'-diphosphate-D,L-3-octadecanamido-2-ethoxypropane] | – | – | – | IC50 [4, 9]: 0.011 µM; D.S. (Differential selectivity) [4]: 600; IC50 [1]: 6.6 µM |
| O=c1[nH]cnc2c1ncn2[C@H]1CC[C@@H](CO)O1 [DDI, dideoxyinosine, reference compound] | > 100 | 1.7 | – | – |
